system: 22Rv1-Enz^R human prostate cancer cell line; assay: 22Rv1-Enz^R cell proliferation assay; type: cell-based; details: 22Rv1-Enz^R cells, 6-day culture, cell media changed every 24 hours, read-out: 22Rv1-Enz^R proliferation assay GIC50 (half maximal growth inhibition constant)
Experimental: The human prostate cancer cell line, 22Rv1 has been reported to express a high level of AR-V7. According to one procedure, 22Rv1 is seeded at 50,000 cells/well on a 24-well plate in quadruplicate and treated with test compounds in concentrations ranging up to 20 μM for four days. Standard culture media is RPMI-1640 supplemented with 10% fetal bovine serum. The test compound initially is dissolved in DMSO at 50 mM. This stock solution is then diluted as needed for the indicated concentrations. At the end of the four-day period, cells are harvested using 1% trypsin and counted using an automated cell counter.
Cell Culture. Human CaP cell lines, LNCaP, 22Rv1, VCaP, PC3, and DU145 are obtained from the American Type Culture Collection (ATCC) and maintained in the standard culture media: RPMI-1640 supplemented with 10% fetal bovine serum (FBS). LNCaP, 22Rv1, and VCaP are androgen-responsive cell lines, while PC3 and DU145 are not. To establish SAT resistant CaP cell lines, LNCaP, 22Rv1, and VCaP are treated continuously with 10-50 μM abiraterone, apalutamide, darolutamide, or enzalutamide. After 3-6 months, stable cell lines are established and designated as LNCaP-Abi^R, LNCaP-Apa^R, LNCaP-Daro^R, LNCaP-Enz^R, VCaP-Abi^R, VCaP-Apa^R, VCaP-Daro^R, VCaP-Enz^R, 22Rv1-Abi^R, 22Rv1-Apa^R, 22Rv1-Daro^R and 22Rv1-Enz^R. Unless otherwise specified, the standard culture media for these SAT-resistant cell lines included 10 μM of their respective SAT. For the proteasome inhibitor study, the inhibitors MG132 and Epoxomicin are used. The E3 ligase inhibitors Heclin, Nutlin 3a, Thalidomide, and VH298 are used. Cell lines obtained from ATCC are confirmed by checking their morphology using optical microscopy, establishing baselines for cell proliferation, verifying species of origin using isoenzymology, and characterizing the cell's DNA fingerprint using short tandem repeat (STR) profiling. Mycoplasma contamination is also assessed using a PCR based detection system.
Selected compounds may be tested in the human prostate cancer cell line, 22Rv1-Enz^R, as described in Geun Taek Lee et al., Molecular Cancer Therapeutics, 20:490-9 (2021). These procedures are similar to that described in Experimental Example 1, above, except that the assay conditions are a 6-day culture with cell media changed every 24 hours.

IC50, < 10 µM:
O=C1CCC(N2C(=O)c3cc(F)c(NCCCCOCCOCCOCCOc4c(-c5csc(N6CCOCC6)n5)ccc(F)c4F)cc3C2=O)C(=O)N1 (stereo not drawn) [Example 32, 5-((4-(2-(2-(2-(2,3-difluoro-6-(2-morpholinothiazol-4-yl)phenoxy)ethoxy)ethoxy)ethoxy)butyl)amino)-2-(2,6-dioxopiperidin-3-yl)-6-fluoroisoindoline-1,3-dione]
O=C(COc1c(-c2csc(N3CCOCC3)n2)ccc(F)c1F)NCCCCC(=O)N1CCN(c2cc3c(cc2F)C(=O)N(C2CCC(=O)NC2=O)C3=O)CC1 (stereo not drawn) [Example 1, 2-(2,3-difluoro-6-(2-morpholinothiazol-4-yl)phenoxy)-N-(5-(4-(2-(2,6-dioxopiperidin-3-yl)-6-fluoro-1,3-dioxoisoindolin-5-yl)piperazin-1-yl)-5-oxopentyl)acetamide]
O=C(COc1c(-c2csc(N3CCOCC3)n2)ccc(F)c1F)NCCCCCCC(=O)N1CCN(c2cc3c(cc2F)C(=O)N(C2CCC(=O)NC2=O)C3=O)CC1 (stereo not drawn) [Example 2, 2-(2,3-difluoro-6-(2-morpholinothiazol-4-yl)phenoxy)-N-(7-(4-(2-(2,6-dioxopiperidin-3-yl)-6-fluoro-1,3-dioxoisoindolin-5-yl)piperazin-1-yl)-7-oxoheptyl)acetamide]
O=C1CCC(N2C(=O)c3cc(F)c(N4CCN(CC5CCN(C(=O)COc6c(-c7csc(N8CCOCC8)n7)ccc(F)c6F)CC5)CC4)cc3C2=O)C(=O)N1 (stereo not drawn) [Example 20, 5-(4-((1-(2-(2,3-difluoro-6-(2-morpholinothiazol-4-yl)phenoxy)acetyl)piperidin-4-yl)methyl)piperazin-1-yl)-2-(2,6-dioxopiperidin-3-yl)-6-fluoroisoindoline-1,3-dione]
O=C(COc1c(-c2csc(N3CCOCC3)n2)ccc(F)c1F)NCCCCCCCCCCNc1cc2c(cc1F)C(=O)N(C1CCC(=O)NC1=O)C2=O (stereo not drawn) [Example 25, 2-(2,3-difluoro-6-(2-morpholinothiazol-4-yl)phenoxy)-N-(10-((2-(2,6-dioxopiperidin-3-yl)-6-fluoro-1,3-dioxoisoindolin-5-yl)amino)decyl)acetamide]
O=C(COc1c(-c2csc(N3CCOCC3)n2)ccc(F)c1F)NCCCCCCCCCCC(=O)N1CCN(c2cc3c(cc2F)C(=O)N(C2CCC(=O)NC2=O)C3=O)CC1 (stereo not drawn) [Example 3, 2-(2,3-difluoro-6-(2-morpholinothiazol-4-yl)phenoxy)-N-(11-(4-(2-(2,6-dioxopiperidin-3-yl)-6-fluoro-1,3-dioxoisoindolin-5-yl)piperazin-1-yl)-11-oxoundecyl)acetamide]

From patent US20240376118A1, “BI-FUNCTIONAL COMPOUNDS AND METHODS FOR TARGETED UBIQUITINATION OF ANDROGEN RECEPTOR” (MONTELINO THERAPEUTICS, INC., priority 2021, published 2024)
